Measurements as given in patent US6737383B1, “Herbicidal oxadiazolidines” (priority 1999, dated 2004).

Key:
[1] = test system: surinam grass; test: Test B pre/postemergence surinam grass; format: in vivo, Brachiaria decumbens
Summary of the method: (§1)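 Response is a visual 0-to-10 score relative to untreated plants, where 0 means no effect and 10 means complete control, taken twelve to sixteen days after application. Treatments went onto soil at planting and onto foliage of 1- to 4-leaf plants, using a surfactant-containing non-phytotoxic solvent.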

[2] = test system: duck salad; test: Test B flood test duck salad; format: in vivo, Heteranthera limosa
Summary of the method: (§2)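 Flood test on plants grown to the 2-leaf stage; treated plants kept in greenhouse twelve to sixteen days, then visually rated against controls on a 0 (no effect) to 10 (complete control) scale.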

[3] = test system: velvetleaf; test: Test B pre/postemergence velvetleaf; format: in vivo, Abutilon theophrasti
Summary of the method: as §1

[4] = test system: sugar beet; test: Test B pre/postemergence sugar beet; format: in vivo, Beta vulgaris
Summary of the method: as §1

[5] = test system: pigweed; test: Test B pre/postemergence pigweed; format: in vivo, Amaranthus retroflexus
Summary of the method: as §1

[6] = test system: corn; test: Test B pre/postemergence corn; format: in vivo, Zea mays
Summary of the method: as §1

[7] = test system: soybean; test: Test B pre/postemergence soybean; format: in vivo, Glycine max
Summary of the method: as §1

[8] = test system: rape; test: Test B pre/postemergence rape; format: in vivo, Brassica napus
Summary of the method: as §1

[9] = test system: crabgrass; test: Test B pre/postemergence crabgrass; format: in vivo, Digitaria sanguinalis
Summary of the method: as §1

[10] = test system: wheat; test: Test B pre/postemergence wheat; format: in vivo, Triticum aestivum
Summary of the method: as §1

[11] = test system: purple nutsedge; test: Test B pre/postemergence purple nutsedge; format: in vivo, Cyperus rotundus
Summary of the method: as §1

[12] = test system: wild oat; test: Test B pre/postemergence wild oat; format: in vivo, Avena fatua
Summary of the method: as §1

[13] = test system: rice; test: Test B flood test rice; format: in vivo, Oryza sativa
Summary of the method: as §2

[14] = test system: blackgrass; test: Test B pre/postemergence blackgrass; format: in vivo, Alopecurus myosuroides
Summary of the method: as §1

[15] = test system: smallflower flatsedge; test: Test B flood test smallflower flatsedge; format: in vivo, Cyperus difformis
Summary of the method: as §2

[16] = Postemergence, Rate 500 g/ha, scale of 0 to 10 where 0 is no effect and 10 is complete control
[17] = Preemergence, Rate 62 g/ha, scale of 0 to 10 where 0 is no effect and 10 is complete control
[18] = Preemergence, Rate 125 g/ha, scale of 0 to 10 where 0 is no effect and 10 is complete control
[19] = Preemergence, Rate 250 g/ha, scale 0 to 10, 0 is no effect, 10 is complete control
[20] = Preemergence, Rate 500 g/ha, scale 0 to 10, 0 is no effect, 10 is complete control
[21] = Rate 62 g/ha, Postemergence, scale 0 to 10, 0 no effect, 10 complete control
[22] = Rate 125 g/ha, Postemergence, scale 0 to 10, 0 is no effect, 10 is complete control
[23] = Rate 62 g/ha, flood test species, Pre-emergence, visual evaluation after twelve to sixteen days
[24] = Rate 125 g/ha, under heading Pre-emergence, flood test species, visual evaluation after twelve to sixteen days
[25] = Rate 250 g/ha, Pre-emergence (flood test species), scale 0 to 10, 0 is no effect, 10 is complete control
[26] = Rate 500 g/ha, Pre-emergence, flood test species, scale 0 to 10 (0 no effect, 10 complete control)
[27] = Postemergence, Rate 250 g/ha, scale 0 to 10

COC(C)n1c(=O)on(C(=O)N(c2ccc(F)cc2)C(C)C)c1=O (stereo not drawn) [Compound 439]
0: B. signalgrass plant response rating ([1]; Postemergence, Rate 250 g/ha, scale 0 to 10, 0 no effect, 10 complete control) | B. signalgrass plant response rating [1, 16] | Plant response rating, B. signalgrass [1, 17] | Plant response rating, B. signalgrass [1, 18] | B. signalgrass plant response rating [1, 19] | B. signalgrass plant response rating [1, 20] | B. signalgrass plant response rating [1, 21] | B. signalgrass plant response rating [1, 22] | Plant response rating, Ducksalad (0 to 10 scale, 0 is no effect, 10 is complete control) [2, 23] | Ducksalad plant response rating (0 to 10 scale, 0 is no effect, 10 is complete control) [2, 24] | Ducksalad plant response rating [2, 25] | Ducksalad plant response rating [2, 26] | Velvetleaf plant response rating [3, 27] | Velvetleaf plant response rating [3, 16] | Plant response rating, Velvetleaf [3, 17] | Plant response rating, Velvetleaf [3, 18] | Velvetleaf plant response rating [3, 19] | Velvetleaf plant response rating [3, 20] | Velvetleaf plant response rating [3, 21] | Velvetleaf plant response rating [3, 22] | Sugarbeets plant response rating [4, 27] | Sugarbeets plant response rating [4, 16] | Plant response rating, Sugarbeets [4, 17] | Plant response rating, Sugarbeets [4, 18] | Sugarbeets plant response rating [4, 19] | Sugarbeets plant response rating [4, 20] | Sugarbeets plant response rating [4, 21] | Sugarbeets plant response rating [4, 22] | Redroot pigweed plant response rating [5, 27] | Redroot pigweed plant response rating [5, 16] | Plant response rating, Redroot pigweed [5, 17] | Plant response rating, Redroot pigweed [5, 18] | Redroot pigweed plant response rating [5, 19] | Redroot pigweed plant response rating [5, 20] | Redroot pigweed plant response rating [5, 21] | Redroot pigweed plant response rating [5, 22] | Corn plant response rating [6, 27] | Corn plant response rating [6, 16] | Plant response rating, Corn [6, 17] | Plant response rating, Corn [6, 18] | Corn plant response rating [6, 19] | Corn plant response rating [6, 20] | Corn plant response rating [6, 21] | Corn plant response rating [6, 22] | Soybean plant response rating [7, 27] | Soybean plant response rating [7, 16] | Plant response rating, Soybean [7, 17] | Plant response rating, Soybean [7, 18] | Soybean plant response rating [7, 19] | Soybean plant response rating [7, 20] | Soybean plant response rating [7, 21] | Soybean plant response rating [7, 22] | Rape plant response rating [8, 27] | Rape plant response rating [8, 16] | Plant response rating, Rape [8, 17] | Plant response rating, Rape [8, 18] | Rape plant response rating [8, 19] | Rape plant response rating [8, 20] | Rape plant response rating [8, 21] | Rape plant response rating [8, 22] | Crabgrass plant response rating [9, 27] | Crabgrass plant response rating [9, 16] | Plant response rating, Crabgrass [9, 17] | Plant response rating, Crabgrass [9, 18] | Crabgrass plant response rating [9, 19] | Crabgrass plant response rating [9, 20] | Crabgrass plant response rating [9, 21] | Crabgrass plant response rating [9, 22] | Wheat plant response rating [10, 27] | Wheat plant response rating [10, 16] | Plant response rating, Wheat [10, 17] | Plant response rating, Wheat [10, 18] | Wheat plant response rating [10, 19] | Wheat plant response rating [10, 20] | Wheat plant response rating [10, 21] | Wheat plant response rating [10, 22] | Nutsedge plant response rating [11, 27] | Nutsedge plant response rating [11, 16] | Plant response rating, Nutsedge [11, 17] | Plant response rating, Nutsedge [11, 18] | Nutsedge plant response rating [11, 19] | Nutsedge plant response rating [11, 20] | Nutsedge plant response rating [11, 21] | Nutsedge plant response rating [11, 22] | Wild oats plant response rating [12, 27] | Wild oats plant response rating [12, 16] | Plant response rating, Wild oats [12, 17] | Plant response rating, Wild oats [12, 18] | Wild oats plant response rating [12, 19] | Wild oats plant response rating [12, 20] | Wild oats plant response rating [12, 21] | Wild oats plant response rating [12, 22] | Plant response rating, Rice (0 to 10 scale, 0 is no effect, 10 is complete control) [13, 23] | Rice plant response rating (0 to 10 scale, 0 is no effect, 10 is complete control) [13, 24] | Rice plant response rating [13, 25] | Rice plant response rating [13, 26] | Blackgrass plant response rating [14, 27] | Blackgrass plant response rating [14, 16] | Plant response rating, Blackgrass [14, 17] | Plant response rating, Blackgrass [14, 18] | Blackgrass plant response rating [14, 19] | Blackgrass plant response rating [14, 20] | Blackgrass plant response rating [14, 21] | Blackgrass plant response rating [14, 22] | Plant response rating, S. Flatsedge (0 to 10 scale, 0 is no effect, 10 is complete control) [15, 23] | S. Flatsedge plant response rating (0 to 10 scale, 0 is no effect, 10 is complete control) [15, 24] | S. Flatsedge plant response rating [15, 25] | S. Flatsedge plant response rating [15, 26]
